From patent US10712339B2, “Engineering of a novel breast tumor microenvironment on a microfluidic chip” (Arizona Board of Regents on behalf of Arizona State …, priority 2014, dated 2020)

Tested on: Endothelial cells (HUVECs)
From the text: To study vasculogenesis and to optimize the ECM composition for endothelial cell sprouting, we first developed a microfluidic model comprised of a single culture region surrounded by the media region. This device was selected to study endothelial growth without the interference of other cell types or the stroma. Since the media channel is in a different compartment from the cell culture region, it facilitated the development of a gradient of biomolecules. To encapsulate endothelial cells fibrin was chosen, as it is known to play a major role in regulating angiogenesis in 3D ECM. Endothelial cells (HUVECs) at a cell density of 20 million cells/ml were injected into the devices and growth and maturation of vascular networks were monitored over a culture period of 5 days. We introduced vascular endothelial growth factor (VEGF) in to the culture media and assessed the subsequent effects on vasculogenesis. VEGF is known as a major growth factor secreted during cancer progression which leads to formation of new blood vessels. […] We primarily compared the diameter and branching of vascular networks and further assessed the permeability of microvessels within each experimental condition.

In the case of VEGF, the permeability of microvessels (VEGF in culture media vs No VEGF control) is reported as “higher permeability”, the “structure of endothelial networks” value (VEGF in culture media vs No VEGF control, 5 day culture) is reported as “impaired structurally” and the “diameter of the formed vascular networks” value (addition of VEGF, endothelial mono-culture in single layer platform) is reported as “reduced”. The “endothelial cell morphology and intercellular connections” value (low and high VEGF conditions vs No VEGF control, from day 1) was “elongated morphology with intercellular connections”.
